Measurements reported in the supplement of paper PMC13380429.

Assays:
Details in all cases: 72 h
[1] = system: Calu-3; experiment: drug sensitivity score (DSS) for viability; higher = more toxic; extreme values may be limits of the assay
[2] = system: HepG2; experiment: as above
[3] = system: U2OS; experiment: as above
[4] = system: Caco-2; experiment: as above
[5] = system: Vero E6; experiment: as above
[6] = system: Calu-3; experiment: relative viability EC50 (midpoint between 100% and the lowest measured viability); higher = less toxic
[7] = system: U2OS; experiment: as above
[8] = system: Caco-2; experiment: as above
[9] = system: Vero E6; experiment: as above
[10] = system: Calu-3; experiment: cell viability relative to DMSO; higher = less toxic
[11] = system: HepG2; experiment: as above
[12] = system: U2OS; experiment: as above
[13] = system: Caco-2; experiment: as above
[14] = system: Vero E6; experiment: as above
[15] = system: HepG2; experiment: relative viability EC50 (midpoint between 100% and the lowest measured viability); higher = less toxic

SMILES | drug sensitivity score [1] | drug sensitivity score [2] | drug sensitivity score [3] | drug sensitivity score [4] | drug sensitivity score [5] | relative viability EC50 [6] | relative viability EC50 [7] | relative viability EC50 [8] | relative viability EC50 [9] | cell viability ([10]; 1 nM) | cell viability ([10]; 10 nM) | cell viability ([10]; 100 nM) | cell viability ([10]; 1000 nM) | cell viability ([10]; 10000 nM) | cell viability ([11]; 1 nM) | cell viability ([11]; 10 nM) | cell viability ([11]; 100 nM) | cell viability ([11]; 1000 nM) | cell viability ([11]; 10000 nM) | cell viability ([12]; 1 nM) | cell viability ([12]; 10 nM) | cell viability ([12]; 100 nM) | cell viability ([12]; 1000 nM) | cell viability ([12]; 10000 nM) | cell viability ([13]; 1 nM) | cell viability ([13]; 10 nM) | cell viability ([13]; 100 nM) | cell viability ([13]; 1000 nM) | cell viability ([13]; 10000 nM) | cell viability ([14]; 1 nM) | cell viability ([14]; 10 nM) | cell viability ([14]; 100 nM) | cell viability ([14]; 1000 nM) | cell viability ([14]; 10000 nM) | relative viability EC50 [15]
O=C1Nc2ccc(I)cc2C1=Cc1cc(Br)c(O)c(Br)c1 [GW-5074] | 0 | 1.8 | 0 | 0.2 | 0 | > 10 µM | > 10 µM | > 10 µM | > 10 µM | 95.1% | 94.2% | 104% | 90.9% | 114% | 90.3% | 98.5% | 97.3% | 97.5% | 68.9% | 99.3% | 97.3% | 100% | 96.1% | 95.5% | 95.6% | 97.5% | 108% | 95% | 88.3% | 97% | 97.3% | 95.8% | 96% | 108% | –
CCc1ccc2c(-c3cccc(Cl)c3)nc(=O)n(CC)c2n1 [YM-976] | 0 | 0.1 | – | 0 | 0 | > 10 µM | – | > 10 µM | > 10 µM | 109% | 98.7% | 101% | 98.3% | 108% | 95.9% | 104% | 97% | 103% | 86.3% | – | – | – | – | – | 104% | 95.6% | 104% | 109% | 97.1% | 96.6% | 97.3% | 92.3% | 90.1% | 91.9% | > 10 µM
O=c1c2ccccc2[se]n1-c1ccccc1 [ebselen] | 0 | – | 0 | 0 | 0 | > 10 µM | > 10 µM | > 10 µM | > 10 µM | 107% | 93.5% | 91.3% | 87.6% | 111% | – | – | – | – | – | 97.4% | 98.7% | 105% | 97.4% | 102% | 88% | 102% | 107% | 88.5% | 100% | 96.4% | 98.5% | 99.4% | 97.6% | 104% | –
COc1ccc([C@@H]2CC(=O)c3c(O)cc(O)cc3O2)cc1O [hesperetin] | 0.1 | – | 0 | 0 | 0 | > 10 µM | > 10 µM | > 10 µM | > 10 µM | 102% | 93.7% | 102% | 93% | 89.2% | – | – | – | – | – | 104% | 96.3% | 97.1% | 99.8% | 102% | 104% | 88.5% | 92.7% | 104% | 98.4% | 94.9% | 98.7% | 98.9% | 90.1% | 108% | –
Oc1c(Cl)cc(Cl)c(Cl)c1Cc1c(O)c(Cl)cc(Cl)c1Cl [hexachlorophene] | 0 | 5.1 | 1.9 | 5.8 | 0.5 | > 10 µM | – | 2.29 µM | > 10 µM | 107% | 103% | 107% | 99.4% | 94.2% | 98% | 98.3% | 94% | 94.4% | 23.8% | 97.8% | 96.8% | 92.9% | 96.1% | 70.9% | 95% | 97.1% | 92.3% | 91.6% | 20.9% | 102% | 102% | 100% | 99.9% | 82% | 2.57 µM
O=C1N[C@@H]2[C@@H](O)[C@@H](O)[C@H](O)[C@@H](CO)N2C1=O [kifunensine] | 0 | 0.5 | 0 | 4.8 | 0.3 | > 10 µM | > 10 µM | – | > 10 µM | 100% | 106% | 103% | 90.7% | 93% | 95.6% | 103% | 99.4% | 98.7% | 82.6% | 104% | 102% | 96.2% | 97.4% | 99% | 98.5% | 105% | 91.8% | 75.1% | 67.5% | 107% | 89.7% | 96.2% | 94.5% | 84.2% | > 10 µM
CN(Cc1cnc2nc(N)nc(N)c2n1)c1ccc(C(=O)N[C@@H](CCC(=O)O)C(=O)O)cc1 [methotrexate] | 0 | 14 | 0 | 6.1 | 16.1 | > 10 µM | > 10 µM | – | 0.284 µM | 104% | 94.3% | 93.9% | 95.8% | 96.5% | 94.3% | 103% | 105% | 21.8% | 18.6% | 103% | 98.2% | 98% | 92.1% | 97.2% | 98.3% | 99.6% | 97.6% | 67.1% | 66% | 103% | 99.1% | 96.1% | 14.7% | 14.3% | 0.379 µM
CC(=O)OC/C=C(C)/C=C/C=C(C)/C=C/C1=C(C)CCCC1(C)C [retinyl-acetate] | 0 | – | – | 0 | 0 | > 10 µM | – | > 10 µM | > 10 µM | 93.7% | 90.4% | 112% | 90.7% | 93.3% | – | – | – | – | – | – | – | – | – | – | 112% | 99% | 104% | 95.9% | 114% | 103% | 103% | 102% | 98% | 102% | –
CC[C@H]1OC(=O)C[C@@H](O)[C@H](C)[C@@H](O[C@@H]2O[C@H](C)C[C@H](N(C)C)[C@H]2O)[C@@H](CC=O)C[C@@H](C)C(=O)/C=C/[C@]2(C)O[C@H]2[C@@H]1C [rosamicin] | 0 | 3.7 | 3.5 | 1.2 | 0 | > 10 µM | 3.09 µM | – | > 10 µM | 101% | 84.5% | 101% | 107% | 87.2% | 87% | 106% | 98.4% | 103% | 28.9% | 100% | 94.2% | 98.8% | 99.4% | 37.1% | 94.6% | 102% | 101% | 100% | 71.5% | 94.7% | 102% | 92.9% | 97% | 90.9% | 3.41 µM
COc1cc(C[C@@H](CO)[C@H](CO)Cc2ccc(O)c(OC)c2)ccc1O [secoisolariciresinol-(-)] | 0 | – | 0 | 0 | 0 | > 10 µM | > 10 µM | > 10 µM | > 10 µM | 98.7% | 102% | 107% | 91.9% | 92.4% | – | – | – | – | – | 100% | 99.1% | 98.7% | 104% | 93.8% | 94.7% | 102% | 87.6% | 93% | 94.7% | 113% | 110% | 98.6% | 97.3% | 99.3% | –
Cn1nnc(-c2ccc(-c3ccc(N4C[C@H](COP(=O)(O)O)OC4=O)cc3F)cn2)n1 [tedizolid-phosphate] | 0.9 | 6.1 | 0 | 0.8 | 0.2 | > 10 µM | > 10 µM | > 10 µM | > 10 µM | 102% | 103% | 114% | 86.1% | 97.6% | 106% | 96.9% | 91% | 71.7% | 53.1% | 98.8% | 98.5% | 97.1% | 93.8% | 93.4% | 108% | 97.8% | 94.2% | 87.3% | 87.9% | 98.5% | 101% | 97.9% | 89.3% | 89.8% | –
Cc1cc2cc3c(C)cc(=O)oc3c(C)c2o1 [trioxsalen] | 0 | 2.9 | 0 | 1 | 0 | > 10 µM | > 10 µM | > 10 µM | > 10 µM | 105% | 96.3% | 106% | 120% | 108% | 104% | 88.8% | 94.7% | 86.1% | 65.8% | 103% | 105% | 101% | 106% | 99.6% | 111% | 99.6% | 91.3% | 92.4% | 80.5% | 97.4% | 96% | 99.5% | 97.5% | 96.3% | –
CCc1c(C(=O)C(N)=O)c2c(OCC(=O)O)cccc2n1Cc1ccccc1 [varespladib] | 0 | 0 | – | 0 | 0 | > 10 µM | – | > 10 µM | > 10 µM | 104% | 99.2% | 91.2% | 110% | 101% | 93.3% | 105% | 96.2% | 101% | 97.7% | – | – | – | – | – | 106% | 90.1% | 94.4% | 93% | 106% | 104% | 102% | 107% | 103% | 99.5% | > 10 µM
